EPA's ToxRefDB 2

What was measured:
[1] = tested on: mouse; conditions: Carcinogenicity; cd1; Oral; Feed; dose end: 104 week; group: systemic; systemic / pathology gross / liver / mass + systemic / pathology gross / liver / nodule(s) + systemic / pathology microscopic / liver / …
[2] = tested on: rat; conditions: Subchronic oral toxicity in rodents, other, Feed, dose end: 90 day, group: systemic
[3] = tested on: rat; conditions: Combined chronic toxicity/carcinogenicity, other, Oral, Feed, dose end: 104 week, group: systemic
[4] = tested on: rat; conditions: Prenatal developmental toxicity study, other, Oral, Gavage/Intubation, dose end: 16 GD
[5] = tested on: dog; conditions: Chronic toxicity, beagle, Oral, Feed, dose end: 52 week, group: systemic
[6] = tested on: rat; conditions: Combined chronic toxicity/carcinogenicity, other, Oral, Feed, dose end: 25 month, group: systemic
[7] = tested on: dog; conditions: Subchronic oral toxicity in nonrodent, beagle, Feed, dose end: 13 week, group: systemic
[8] = tested on: rat; conditions: Multigenerational reproductive toxicity study, sprague dawley, Oral, Feed, dose end: 2 generation
[9] = tested on: rabbit; conditions: Prenatal developmental toxicity study, new zealand white, Oral, Gavage/Intubation, dose end: 28 GD
[10] = systemic / in life observation / body weight / body weight + systemic / in life observation / food consumption / food efficiency
[11] = systemic / in life observation / body weight / body weight + systemic / in life observation / food consumption / food efficiency + systemic…
[12] = group: developmental, developmental / developmental malformation / bone / misaligned + developmental / developmental malformation / kidney / absent renal papilla…
[13] = group: maternal, systemic / in life observation / body weight / body weight gain + systemic / in life observation / food consumption / food consumption + …
[14] = systemic / clinical chemistry / alkaline phosphatase (alp/alk) / alkaline phosphatase (alp/alk) + systemic / pathology microscopic / liver…
[15] = systemic / organ weight / liver / absolute
[16] = group: offspring, systemic / in life observation / body weight / offspring (pup) weight
[17] = group: parental, systemic / in life observation / body weight / body weight + systemic / in life observation / body weight / body weight gain
[18] = group: developmental, systemic / in life observation / body weight / fetal weight
[19] = group: maternal, reproductive / reproductive performance / aborted / aborted + systemic / in life observation / body weight / body weight gain + systemic / …

## CN(C)c1nc(=O)n(C2CCCCC2)c(=O)n1C [Hexazinone]
[1]
  LEL: 366 mg/kg/day
  LOAEL: 366 mg/kg/day
  NEL: 28 mg/kg/day
  NOAEL: 28 mg/kg/day
[2]; [10]
  LOAEL: 440 mg/kg/day
[2]; [11]
  LEL: 440 mg/kg/day
  NEL: 81 mg/kg/day
  NOAEL: 81 mg/kg/day
[3]; [10]
  LOAEL: 50 mg/kg/day
[3]; [11]
  LEL: 50 mg/kg/day
  NEL: 10 mg/kg/day
  NOAEL: 10 mg/kg/day
[4]; [12]
  LEL: 900 mg/kg/day
  LOAEL: 900 mg/kg/day
  NEL: 400 mg/kg/day
  NOAEL: 400 mg/kg/day
[4]; group: maternal, systemic / in life observation / body weight / body weight gain + systemic / in life observation / food consumption / food consumption
  LOAEL: 400 mg/kg/day
[4]; [13]
  LEL: 400 mg/kg/day
  NEL: 100 mg/kg/day
  NOAEL: 100 mg/kg/day
[5]; [14]
  LOAEL: 37.6 mg/kg/day
  NEL: 4.97 mg/kg/day
  NOAEL: 4.97 mg/kg/day
[5]; systemic / pathology microscopic / liver / lesion(s) (nos) + systemic / pathology microscopic / liver / pigmentation
  LEL: 37.6 mg/kg/day
[6]; [10]
  LOAEL: 53.4 mg/kg/day
[6]; [11]
  LEL: 53.4 mg/kg/day
  NEL: 10.2 mg/kg/day
  NOAEL: 10.2 mg/kg/day
[7]; systemic / clinical chemistry / alkaline phosphatase (alp/alk) / alkaline phosphatase (alp/alk) + systemic / in life observation / body …
  LOAEL: 122 mg/kg/day
[7]; [15]
  LEL: 5.1 mg/kg/day
  NEL: < 5.1 mg/kg/day
[7]; systemic / organ weight / liver / absolute + systemic / clinical chemistry / alkaline phosphatase (alp/alk) / alkaline phosphatase (alp/alk…
  NOAEL: 25.9 mg/kg/day
[8]; [16]
  LEL: 154 mg/kg/day
  LOAEL: 180 mg/kg/day
  NEL: 15.3 mg/kg/day
  NOAEL: 17.7 mg/kg/day
[8]; [17]
  LEL: 143 mg/kg/day
  LOAEL: 143 mg/kg/day
  NEL: 14.3 mg/kg/day
  NOAEL: 14.3 mg/kg/day
[9]; [18]
  LEL: 125 mg/kg/day
  LOAEL: 125 mg/kg/day
  NEL: 50 mg/kg/day
  NOAEL: 50 mg/kg/day
[9]; [19]
  LEL: 125 mg/kg/day
  LOAEL: 125 mg/kg/day
  NEL: 50 mg/kg/day
  NOAEL: 50 mg/kg/day
